The values that follow come from patent US20240294551A1 (AMGEN INC., priority 2022, published 2024).

Experiment [1] has as its target His-tagged KRAS G12D protein (Homo sapiens (Human), UniProt P01116, G12D). The experiment in a line: KRAS G12D TR-FRET Assay. Type of experiment: binding. As to conditions: read-out: KRAS G12D Binding IC50. The essentials: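 Each incubation ran at room temperature: enzyme with compound for 30 minutes, peptide for one hour, and detection reagents (0.4 nM europium anti-6×His, 5 nM streptavidin-d2) for one hour more. Protein and peptide stocks were each diluted to 20 nM before addition.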

For experiment [2], the target named is GDP-bound KRAS protein (aa 1-169), containing both G12D and C118A amino acid substitutions (Homo sapiens (Human), UniProt P01116, C118A/G12D). The experiment in a line: KRAS G12D Coupled Nucleotide Exchange Assay. The experiment is classed as biochemical. The settings on record: read-out: KRAS G12D Coupled Exchange IC50.
The test system of experiment [3] is Phosphorylation of ERK1/2 in AsPC-1 cells. The experiment in a line: Phospho-ERK1/2 MSD Assay. Type of experiment: cell-based, human. The settings on record: Homo sapiens, ASPC1, 2 h, read-out: 2 h p-ERK (AsPC-1 cells), IC50. A digest of the protocol:
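Read-out: MSD electrochemiluminescent detection of phosphorylated ERK1/2 in whole-cell lysates, fitted to a 4-parameter logistic curve for IC50. Prior to lysis, AsPC-1 cells (25,000 per well) received a 2 h compound dose-response at 37 °C.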

Molecules are shown by their SMILES.

His-tagged KRAS G12D protein, sequence (P01116 other isoform, or with tags, fused parts or gaps G12D): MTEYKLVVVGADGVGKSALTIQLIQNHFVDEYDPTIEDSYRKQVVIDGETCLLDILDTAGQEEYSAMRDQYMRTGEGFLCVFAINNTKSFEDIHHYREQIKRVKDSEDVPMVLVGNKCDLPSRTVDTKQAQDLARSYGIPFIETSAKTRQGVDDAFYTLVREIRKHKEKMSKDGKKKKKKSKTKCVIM
GDP-bound KRAS protein (aa 1-169), containing both G12D and C118A amino acid substitutions, sequence (P01116 other isoform, or with tags, fused parts or gaps G12D/C118A): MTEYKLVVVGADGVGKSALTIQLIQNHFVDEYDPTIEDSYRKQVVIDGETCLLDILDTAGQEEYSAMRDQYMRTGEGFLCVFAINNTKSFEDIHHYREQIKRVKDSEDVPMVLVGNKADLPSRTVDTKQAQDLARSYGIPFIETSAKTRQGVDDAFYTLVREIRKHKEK

As for `O=C1CCCCc2c(Cl)cccc2-c2ncc3c(nc(OC[C@@]45CCCN4C[C@H](F)C5)nc3c2F)N2CC[C@H]3CCN1[C@H]3C2` [Example 162, (25S,29R)-15-chloro-30-fluoro-4-(((2R,7aS)-2-fluorotetrahydro-1H-pyrrolo[1,2-a]pyrrol-7a(5H)-yl)methoxy)-1,3,5,9,22-pentaazahexacyclo[20.5.2.1~6,10~.0~2,7~.0~11,16~.0~25,29~]triaconta-2,4,6,8,10(30),11,13,15-octaen-21-one], the values for the IC50 in experiment [1], in experiment [2] and in experiment [3] were 0.037 µM, 0.02 µM and 1.83 µM, respectively.

Take `O=C1N[C@@H]2CN(C[C@@H]3C[C@@H]32)c2nc(OC[C@@]34CCCN3C[C@H](F)C4)nc3c(F)c(ncc23)-c2c(c(Cl)cc3[nH]ncc23)CCC[C@@H]1F` [Example 174, (23S,26S,27S,29R)-18-chloro-23,32-difluoro-4-(((2R,7aS)-2-fluorotetrahydro-1H-pyrrolo[1,2-a]pyrrol-7a(5H)-yl)methoxy)-1,3,5,9,14,15,25-heptaazaheptacyclo[24.4.1.1~6,10~.0~2,7~.0~11,19~.0~12,16~.0~27,29~]dotriaconta-2,4,6,8,10(32), 11,13,16,18-nonaen-24-one]: the IC50 in experiment [1] was found to be 0.005 µM; in experiment [2] it was 0.003 µM; in experiment [3], 0.0535 µM.

On to `O=C1OCCc2cccc3cccc(c23)-c2ncc3c(nc(OC[C@@]45CCCN4C[C@H](F)C5)nc3c2F)N2CCOC[C@H](C2)O1` [Example 201, (16S)-32-fluoro-8-(((2R,7aS)-2-fluorotetrahydro-1H-pyrrolo[1,2-a]pyrrol-7a(5H)-yl)methoxy)-14,17,19-trioxa-3,7,9,11-tetraazahexacyclo[20.7.1.1~2,6~.1~11,16~.0~5,10~.0~26,30~]dotriaconta-1(29),2(32),3,5,7,9,22,24,26(30),27-decaen-18-one], for which the IC50 was 0.009 µM in experiment [1], 0.008 µM in experiment [2] and 0.171 µM in experiment [3].

Turning to `C[C@@H](Oc1nc2c3cnc(c(F)c3n1)-c1c(c(Cl)cc3[nH]ncc13)CCCOC(=O)O[C@@H]1COCCN2C1)[C@@H]1CCCN1C` [Example 203, (26S)-18-chloro-32-fluoro-4-((1R)-1-((2S)-1-methyl-2-pyrrolidinyl)ethoxy)-23,25,28-trioxa-1,3,5,9,14,15-hexaazahexacyclo[24.4.1.1~6,10~.0~2,7~.0~11,19~.0~12,16~]dotriaconta-2,4,6,8,10(32),11,13,16,18-nonaen-24-one], the IC50 in experiment [1] is 0.017 µM; in experiment [2], 0.008 µM; in experiment [3], 0.171 µM.

In the case of `C[C@H](Oc1nc2c3cnc(c(F)c3n1)-c1c(c(Cl)cc3[nH]ncc13)CCCOC(=O)O[C@@H]1COCCN2C1)[C@@H]1CCCN1C` [Example 204, (26S)-18-chloro-32-fluoro-4-((1S)-1-((2S)-1-methyl-2-pyrrolidinyl)ethoxy)-23,25,28-trioxa-1,3,5,9,14,15-hexaazahexacyclo[24.4.1.1~6,10~.0~2,7~.0~11,19~.0~12,16~]dotriaconta-2,4,6,8,10(32),11,13,16,18-nonaen-24-one], the IC50 in experiment [1] stood at 0.034 µM; in experiment [2] it was 0.016 µM; in experiment [3], 0.429 µM.

Turning to `Cc1cc2[nH]ncc2c2c1CCOC(=O)OC1CC3(CCCN(C3)c3nc(OC[C@@H]4CCCN4C)nc4c(F)c-2ncc34)C1` [Example 205, (1R,3S)-32-fluoro-10-methyl-24-(((2S)-1-methyl-2-pyrrolidinyl)methoxy)-4,6-dioxa-13,14,19,23,25,27-hexaazaheptacyclo[25.3.1.1~1,3~.1~18,22~.0~9,17~.0~12,16~.0~21,26~]tritriaconta-9,11,14,16,18(32),19,21,23,25-nonaen-5-one], the values for the IC50 in experiment [1], in experiment [2] and in experiment [3] were 0.011 µM, 0.006 µM and 0.0361 µM, respectively.

Regarding `Cc1cc2[nH]ncc2c2c1CCOC(=O)OC[C@H]1CN(CCO1)c1nc(OC[C@@]34CCCN3C[C@H](F)C4)nc3c(F)c-2ncc13` [Example 218], the IC50 in experiment [1] turned out to be 0.004 µM; in experiment [2], 0.003 µM; in experiment [3], 0.0278 µM.

`Cc1cc2[nH]ncc2c2c1CCOC(=O)OC[C@@H]1CCN(C1)c1nc(OC[C@@]34CCCN3C[C@H](F)C4)nc3c(F)c-2ncc13` [Example 219]: the IC50 amounted to 0.019 µM in experiment [1], 0.01 µM in experiment [2] and 0.369 µM in experiment [3].

As to `Fc1c2ncc3c(nc(OC[C@@]45CCCN4C[C@H](F)C5)nc13)N1CC(COCCCCc3c(Cl)cc4[nH]ncc4c3-2)CC(F)(F)C1` (stereo partly drawn) [Example 229], the IC50 amounted to 0.027 µM in experiment [1], 0.012 µM in experiment [2] and 0.342 µM in experiment [3].

With `Fc1c2ncc3c(nc(OC[C@@]45CCCN4C[C@H](F)C5)nc13)N1CCCC(Cc3ncn(n3)CCc3c(Cl)cc4[nH]ncc4c3-2)C1` (stereo partly drawn) [Example 232], the IC50 was determined as 0.031 µM in experiment [1], 0.018 µM in experiment [2] and 1.34 µM in experiment [3].

As for `Cc1cc2[nH]ncc2c2c1C[C@H](C)CCOC[C@@H]1CCCN(C1)c1nc(OC[C@@]34CCCN3C[C@H](F)C4)nc3c(F)c-2ncc13` [Example 251, (12S,17R)-30-fluoro-24-(((2R,7aS)-2-fluorotetrahydro-1H-pyrrolo[1,2-a]pyrrol-7a(5H)-yl)methoxy)-9,12-dimethyl-15-oxa-5,6,21,23,25,29-hexaazahexacyclo[24.3.1.1~17,21~.0~2,10~.0~3,7~.0~22,27~]hentriaconta-1(30),2,4,7,9,22,24,26,28-nonaene], the IC50 in experiment [1] was determined as 0.015 µM; in experiment [2], 0.008 µM; in experiment [3], 0.381 µM.

Turning to `C[C@H]1CCOC[C@H]2CN(CCO2)c2nc(OC[C@@]34CCCN3C[C@H](F)C4)nc3c(F)c(ncc23)-c2c(c(Cl)cc3[nH]ncc23)C1` [Example 252, (12R,17R)-9-chloro-30-fluoro-24-(((2R,7aS)-2-fluorotetrahydro-1H-pyrrolo[1,2-a]pyrrol-7a(5H)-yl)methoxy)-12-methyl-15,18-dioxa-5,6,21,23,25,29-hexaazahexacyclo[24.3.1.1~17,21~.0~2,10~.0~3,7~.0~22,27~]hentriaconta-1(30),2,4,7,9,22,24,26,28-nonaene], the IC50 stood at 0.028 µM in experiment [1], 0.017 µM in experiment [2] and 0.926 µM in experiment [3].

`Fc1c2ncc3c(nc(OC[C@@]45CCCN4C[C@H](F)C5)nc13)N1CCCC(C1)c1cnc(o1)CCCc1c(Cl)cc3[nH]ncc3c1-2` (stereo partly drawn) [Example 255]: the IC50 in experiment [1] is 0.01 µM; in experiment [2] it was 0.009 µM; in experiment [3] it was 0.0775 µM.

For the compound `Fc1c2ncc3c(nc(OC[C@@]45CCCN4C[C@H](F)C5)nc13)N1CCOC[C@]3(C1)C[C@@H](C3)OCCCCc1c(Cl)cc3[nH]ncc3c1-2` [Example 263, (1S,3S)-10-chloro-33-fluoro-24-(((2R,7aS)-2-fluorotetrahydro-1H-pyrrolo[1,2-a]pyrrol-7a(5H)-yl)methoxy)-4,30-dioxa-13,14,19,23,25,27-hexaazaheptacyclo[25.4.1.1~1,3~.1~18,22~.0~9,17~.0~12,16~.0~21,26~]tetratriaconta-9,11,14,16,18(33),19,21,23,25-nonaene], the IC50 in experiment [1] is 0.006 µM; in experiment [2] it was 0.004 µM; in experiment [3] it was 0.0424 µM.

On to `Fc1c2ncc3c(nc(OC[C@@]45CCCN4C[C@H](F)C5)nc13)N1CCOC[C@]3(C1)C[C@H](C3)OCCCCc1c(Cl)cc3[nH]ncc3c1-2` [Example 264, (1R,3R)-10-chloro-33-fluoro-24-(((2R,7aS)-2-fluorotetrahydro-1H-pyrrolo[1,2-a]pyrrol-7a(5H)-yl)methoxy)-4,30-dioxa-13,14,19,23,25,27-hexaazaheptacyclo[25.4.1.1~1,3~.1~18,22~.0~9,17~.0~12,16~.0~21,26~]tetratriaconta-9,11,14,16,18(33),19,21,23,25-nonaene], for which the IC50 in experiment [1] amounted to 0.038 µM; in experiment [2] it was 0.024 µM; in experiment [3], 0.368 µM.

For `O=C1COCCc2c(Cl)cc3[nH]ncc3c2-c2ncc3c(nc(OC[C@@]45CCCN4C[C@H](F)C5)nc3c2F)N2CCCC[C@H](C2)N1` [Example 271, (26R)-18-chloro-32-fluoro-4-(((2R,7aS)-2-fluorotetrahydro-1H-pyrrolo[1,2-a]pyrrol-7a(5H)-yl)methoxy)-22-oxa-1,3,5,9,14,15,25-heptaazahexacyclo[24.4.1.1~6,10~.0~2,7~.0~11,19~.0~12,16~]dotriaconta-2,4,6,8,10(32),11,13,16,18-nonaen-24-one], the half-maximal inhibitory concentration (IC50) stood at 0.013 µM in experiment [1], 0.002 µM in experiment [2] and 0.5 µM in experiment [3].

Take `CN1C(=O)OCCCc2c(Cl)cc3[nH]ncc3c2-c2ncc3c(nc(OC[C@@]45CCCN4C[C@H](F)C5)nc3c2F)N2C[C@@H](O)C[C@@H]1C2` [Example 286, (17R,19S)-9-chloro-30-fluoro-24-(((2R,7aS)-2-fluorotetrahydro-1H-pyrrolo[1,2-a]pyrrol-7a(5H)-yl)methoxy)-19-hydroxy-16-methyl-14-oxa-5,6,16,21,23,25,29-heptaazahexacyclo[24.3.1.1~17,21~.0~2,10~.0~3,7~.0~22,27~]hentriaconta-1(30),2,4,7,9,22,24,26,28-nonaen-15-one]: the IC50 stood at 0.081 µM in experiment [1], 0.015 µM in experiment [2] and 1.25 µM in experiment [3].
